We go through five molecules from patent publication US20180228871A1, “METHODS FOR THE MOBILIZATION AND USE OF T-CELLS WITH ENHANCED RECONSTITUTION POTENTIAL AND LIFE-SPAN” (GlycoMimetics, Inc., priority 2015, published 2018).

One series relates to HSC. To be noted: transient administration; cited from earlier work.
The subject of a further series is CD8+CD62Lhi CD44+ cells. Description: G-CSF mobilization of blood leukocytes and T-cell subsets with GMI-1271 co-administration (flow cytometry of blood). Type of series: in vivo, mice (C57bl/6). The note with it: C57bl/6 mice; for CD44+CD62hi CD4+ T-cells per uL blood: G-CSF administration, with or without GMI-1271 co-administration, FIG. 4B. How it is done:
The following classification was used in the following experiments. Of all the CD8+ cells the Tnaive, population is CD62hi […]; the TCM/SCM population is CD62hi CD44+; and the TEM population is CD44+CD62^− population. An increase in the TCM/SCM mouse cell population is observed below (see FIGS. 1 through 6).
Cohorts of mice (C57bl/6 adult 10 week old males) were administered G-CSF (Filgastim, Amgen) at 125ug/kg/injection bidaily subcutaneous injections for a total of 72 hours before sacrifice (with non-mobilised control group #1 receiving saline injection instead).
The E-selectin mimetic antagonist GMI-1271 (bidaily intraperitoneal injections at 40 mg/kg/injection), was co-administered to these mice at specified timepoints prior to sacrifice with a final GMI-1271 injection always occurring exactly 1 hour prior to sacrifice. Generally all mice received injections at 9 am and 6 pm every day with n=4 per group. The injection groups are outlined in FIG. 1 and are detailed below.
The mouse groups were: Group 1. non-mobilised control, Group 2. G-CSF alone control, Group 3. 14 hours GMI-1271, Group 4. 24 hours GMI-1271, Group 5. 48 hours GMI-1271, Group 6. 72 hours GMI-1271
After 3 days (72 hours) G-CSF administration mice were euthanised administration and heparinised blood collected by cardiac puncture. Total blood leukocytes counts were enumerated using an automated haematological cell counter (Beckman-Coulter KX-21), For flow cytometry, red cells were first lysed using ammonium lysis then blood leukocytes washed in phosphate buffered saline (PBS) containing 2% fetal calf serum and incubated on ice in the presence of excess FcBlock (CD16/CD32 hybridoma 2.4G2 supernatant to block endogenous Fc receptors) following the methodology in Winkler et al., Nature Medicine 2012. Cells were stained using the antibodies CD4-pacific blue, CD8-peCY7, CD62L-BV605, CD44-AF700 at a final concentration of approx 5 million leukocytes per 100 uL volume containing 0.5 ug of each of the above conjugated monoclonal antibodies. All conjugated antibodies were purchased from Biolegend, CA. After 40 minutes incubation on ice, cells were washed to remove excess antibody (by addition of 1 mL PBS, centrifugation at 370×g for 5 minutes at 4 C, removal of supernatant and resuspension of pellet in 100 uL PBS with 2% fetal calf serum). Flow cytometry of cells was performed on the 8 colour CYAN (Beckman Coulter) using unstained blood and single colour controls to set voltages and gating strategy.
CD8+ Tcell subsets were divided based on CD62 and CD44 staining. With CD8+ naive T cells being CD62hi CD44−, CD8+T CM/SCM cells being CD62hi CD44+ double positive and TEM being CD44+ and CD62 negative following routine methodology.
Data was later analysed using the Flow Jo software and collated in excel software. Figures and statistics were by ANOVA using prism software.

The next series deals with CCR7+ cells. Description: Mobilization of CCR7 cells by G-CSF and GMI-1271: PBMC counts and marker-positive cells by flow cytometry. The class given is in vivo, Mouse. To be noted: for CCR7 Cells/mL(10^5): IP qdX3, blood PBMC. How it is done: (§1) 1) Test Animals: • 1. Species: Mouse • 2. Strain: Balb/C and C57BV6 • 3. Age and gender 7-9 weeks, Female • 4. Source: Harlan Laboratories • 5. Total number: 25
(§2) G-CSF and GM-1271 in powder form. The test agents were reconstituted with saline 600 μg of G-CSF was dissolved in 6.5 mL of sterile saline giving a concentration of 92.307 μg/mL. Animals were administered with 0.1 mL of dose solution per time point giving the dose concentration for G-CSF was 9.23 μg per mouse per time point.
(§3) 70 mg of GM-1271 was reconstituted with 7 mL of sterile saline giving a concentration of 10 mg/mL. Animals were administered with 0.1 mL of dose solution per time point giving the dose concentration for GM-1271 was 1 mg per mouse per time point.
(§4) • To purify PBMCs, red blood cells (RBCs) in the whole blood were lysed using ACK Lysing Buffer (Life Technologies, A1049201). Whole blood was mixed with ACK Lysing Buffer at a 1: 25 ratio and incubated at room temperature on shaker for 5 min. The cells were centrifuged at 350 g for 7 min and the supernatant was discarded. The purified PBMCs were suspended in PBS containing 2% FBS. Cell counts were performed, pelleted at 250×g for 10 minutes and suspended in 5 ml HBSS containing containing Ca2+ and Mg2+(Life Technologies catalog #14025-092) plus 0.05% bovine serum albumin (BSA) to […] for antibody staining.
(§5) • Add 100 ul cells (2-3×10^5 cells) per tube (5 mL polypropylene round-bottom tubes (BD Falcon tubes #352063, VWR catalog #60819-728). Add indicated amounts of Alexa Fluor 488® labeled antibodies as indicated in Table 3 and immediately place on ice. • Place tubes at 4° C. for 1 hour then add 2 mL cold HBSS/BSA to each tube and pellet cells 250×g for 10 minutes. Pour off supernatant and suspend the cell pellet in 1 mL cold HBSS/BSA. Pellet cells 250×g for 10 minutes, pour off supernatant, and suspend cell pellet in 250 microliters HBSS/BSA. Add 250 microliters 2% formaldehyde (Polysciences, Inc. catalog #04018, 10% ultrapure, EM grade, methanol-free). Proceed to flow cytometry.
(§6) • Fluorescence was acquired via blue laser excitation at 488 nm with emission at 530 nm using preset lasers equipped on the Attune@ NxT Accoustic Focusing Cytometer (Life Technologies). 2×104 events were collected for each sample and analyzed with the use of the Attune® NxT Cytometric Software v2.1. Results were recorded as median fluorescent intensity, % cells positive for a given marker, and as cell concentration of expressing the specific marker per mL.
(§7) These experiments were done in both Balb/c (top table) and BL6 (bottom table) mouse strains.

Assay in series [1]: as above
Type of series: in vivo, Mouse. To be noted: IP qdX3, blood PBMC. How it is done: as §1, §2, §3, §4, §5, §6, §7

In another series the test system is HSCs. To be noted: E-selectin inhibition during HSC mobilization with G-CSF; cited from earlier work.
The conditions of series [2]: in vivo; cited from earlier work.

Take `C[C@@H]1O[C@@H](O[C@@H]2[C@@H](NC(=O)c3cc(=O)[nH]c(=O)[nH]3)C[C@@H](C(=O)NCCNC(=O)COCCOCC(=O)Nc3cc(S(=O)(=O)O)cc4cc(S(=O)(=O)O)cc(S(=O)(=O)O)c34)C[C@H]2O[C@@H]2O[C@H](CO)[C@H](O)[C@H](O[C@@H](CC3CCCCC3)C(=O)O)[C@H]2OC(=O)c2ccccc2)[C@@H](O)[C@H](O)[C@@H]1O` [GMI-1070]: the HSC self-renewal entry with HSC is recorded as “promotes HSC self-renewal”.

For `CC[C@H]1C[C@@H](C(=O)NCCNC(=O)CCOCCOCCOCCOCCOCCOCCOCCOCCOCCOCCOCCOC)C[C@@H](O[C@@H]2O[C@H](CO)[C@H](O)[C@H](O[C@@H](CC3CCCCC3)C(=O)[O-])[C@H]2NC(C)=O)[C@@H]1O[C@@H]1O[C@@H](C)[C@@H](O)[C@@H](O)[C@@H]1O.[Na+]` [GMI-1271], in the series with CD8+CD62Lhi CD44+ cells (24 hr administration of GMI-1271 with 72 h G-CSF, FIG. 2), the “Total leukocytes per uL blood, increase over G-CSF 3 days alone” value is given as around 1.5 fold. In addition, in the series with CD8+CD62Lhi CD44+ cells (24 hrs GMI-1271 co-administration with G-CSF, FIG. 5B), the “CD44+CD62hi CD8+ Tcells per uL blood” value is “significantly increased”. Also, the “CD44+CD62hi CD4+ T-cells per uL blood” value with CD8+CD62Lhi CD44+ cells is recorded as “does not appear to boost their numbers in blood”. Also, in the series on CD8+CD62Lhi CD44+ cells (G-CSF with GMI-1271 co-administration, FIG. 4A), the “CD4+ Tcells per uL blood” value is “no change”. Moreover, the “CD8+ Tcells per uL blood” value in the series on CD8+CD62Lhi CD44+ cells (G-CSF with GMI-1271 co-administration, FIG. 5A) is recorded as “no changes”. For the same molecule, in the series with CD8+CD62Lhi CD44+ cells (GMI-1271 co-administration with G-CSF, FIG. 3), the “Total T-cells per uL blood (CD4+ and CD8+ combined)” value is given as “No change”. In the series on CCR7+ cells (BL6 mice (bottom table)), the “CCR7 Cells/mL(10^5)” value was 0.23 10^5 cells/mL. For the same molecule, the “CCR7 Cells/mL(10^5)” value with CCR7+ cells (Balb/c mice (top table)) is on record as 1.68 10^5 cells/mL. Further, the “mobilization of CCR7+ cells” value in the series on CCR7+ cells (addition of GMI-1271 to G-CSF, both Balb/c and BL6 strains) is “increases the mobilization of CCR7+ cells”. Further, in series [1] (BL6 mice (bottom table)), the “CD4 Cells/mL(10^5)” value is recorded as 0.43 10^5 cells/mL, the “CD8 Cells/mL(10^5)” value is 1.74 10^5 cells/mL, the “CD44 Cells/mL(10^5)” value is reported as 3.56 10^5 cells/mL and the “CD62L Cells/mL(10^5)” value is 0.19 10^5 cells/mL. Also, the “Total cells/mL (10^6 + SD)” value in series [1] (BL6 mice (bottom table)) is recorded as 1.89 ± 0.40 10^6 cells/mL. Further, in series [1] (Balb/c mice (top table)), the “CD4 Cells/mL(10^5)” value is given as 1.56 10^5 cells/mL, the “CD8 Cells/mL(10^5)” value is reported as 0.49 10^5 cells/mL, the “CD44 Cells/mL(10^5)” value was 4.76 10^5 cells/mL and the “CD62L Cells/mL(10^5)” value is reported as 0.74 10^5 cells/mL. For the same molecule, the “Total cells/mL (10^6 + SD)” value in series [1] (Balb/c mice (top table)) is 1.01 ± 0.46 10^6 cells/mL. The “reconstitution potential of mobilized HSCs” value with HSCs is around 25 fold.

B1: G-CSF: granulocyte-colony stimulating factor, a glycoprotein; Example I used Filgastim (Amgen) (protein, UniProt P09919 31-207, looked up)
Granulocyte …: TPLGPASSLPQSFLLKCLEQVRKIQGDGAALQEKLVSECATYKLCHPEELVLLGHSLGIPWAPLSSCPSQALQLAGCLSQLHSGLFLYQGLLQALEGISPELGPTLDTLQLDVADFATTIWQQMEELGMAPALQPTQGAMPAFASAFQRRAGGVLVASHLQSFLEVSYRVLRHLAQP
modifications: filgrastim
In the case of B1, the “CD44+CD62hi CD4+ T-cells per uL blood” value in the series with CD8+CD62Lhi CD44+ cells is “appear to be decreased”. The “CCR7 Cells/mL(10^5)” value in the series with CCR7+ cells (BL6 mice (bottom table)) is reported as 0.60 10^5 cells/mL. The “CCR7 Cells/mL(10^5)” value with CCR7+ cells (Balb/c mice (top table)) was 4.00 10^5 cells/mL. Moreover, in series [1] (BL6 mice (bottom table)), the “CD4 Cells/mL(10^5)” value is on record as 1.10 10^5 cells/mL, the “CD8 Cells/mL(10^5)” value was 10.00 10^5 cells/mL, the “CD44 Cells/mL(10^5)” value was 12.65 10^5 cells/mL and the “CD62L Cells/mL(10^5)” value is listed as 0.09 10^5 cells/mL. Besides, the “Total cells/mL (10^6 + SD)” value in series [1] (BL6 mice (bottom table)) is on record as 5.98 ± 2.25 10^6 cells/mL. Moreover, in series [1] (Balb/c mice (top table)), the “CD4 Cells/mL(10^5)” value is recorded as 3.43 10^5 cells/mL, the “CD8 Cells/mL(10^5)” value is 1.32 10^5 cells/mL, the “CD44 Cells/mL(10^5)” value is 14.88 10^5 cells/mL and the “CD62L Cells/mL(10^5)” value is on record as 1.59 10^5 cells/mL. The “Total cells/mL (10^6 + SD)” value in series [1] (Balb/c mice (top table)) is reported as 2.67 ± 0.64 10^6 cells/mL.

B2: Filgrastim: recombinant G-CSF expressed by E. coli, 175 amino acids, 19 kD, amino terminus methionine (protein, UniProt P09919 31-207, looked up)
Granulocyte …: TPLGPASSLPQSFLLKCLEQVRKIQGDGAALQEKLVSECATYKLCHPEELVLLGHSLGIPWAPLSSCPSQALQLAGCLSQLHSGLFLYQGLLQALEGISPELGPTLDTLQLDVADFATTIWQQMEELGMAPALQPTQGAMPAFASAFQRRAGGVLVASHLQSFLEVSYRVLRHLAQP
modifications: filgrastim, N-terminal Met
In general, half-life refers to how long it takes for the measured level to halve. Regarding B2, in series [2], the half-life is 3.5 h.

B3: Pegfilgrastim: Filgrastim with pegylation (20 kD-PEG) modification on the N terminal (protein, UniProt P09919 31-207, looked up)
Granulocyte …: TPLGPASSLPQSFLLKCLEQVRKIQGDGAALQEKLVSECATYKLCHPEELVLLGHSLGIPWAPLSSCPSQALQLAGCLSQLHSGLFLYQGLLQALEGISPELGPTLDTLQLDVADFATTIWQQMEELGMAPALQPTQGAMPAFASAFQRRAGGVLVASHLQSFLEVSYRVLRHLAQP
modifications: N-terminal 20 kDa PEG; pegfilgrastim
Consider B3, for which the half-life in series [2] is 15 to 80 h.
